ΔTm and Kd data for two molecules are collected here from patent US12415785B2, “Compound modulators of sting” (CTXT PTY LTD, priority 2019, dated 2025).

The structures appear in SMILES notation. pKd: −log10 of the molar value.

What all share (assay type): binding
In assay [1] the target is T1, human STING (WT) (Homo sapiens (Human), UniProt Q86WV6, H232R). Description: Differential scanning fluorimetry (DSF), huSTING (WT). To be noted: 2 μM protein, compound 100 μM; Tm with ligand minus Tm of protein alone (1% DMSO); read-out: DSF huSTING (WT) ΔTm (° C.). The method, boiled down: (§1)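 Recombinant His-TEV-tagged human STING allelic variants expressed in E. coli and purified by IMAC. Thermal unfolding followed by dye fluorescence (excitation 490 nm, emission 570 nm) from 20° C. to 100° C. in 0.5° C. steps, in triplicate, with and without ligand; Tm taken from the transition inflection point.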

A further assay addresses human STING (HAQ) (Homo sapiens, UniProt Q86WV6, G230A/H232R/R293Q). Description: Differential scanning fluorimetry (DSF), huSTING (HAQ). As to conditions: 2 μM protein, compound 100 μM; Tm with ligand minus Tm of protein alone (1% DMSO); read-out: DSF huSTING (HAQ) ΔTm (° C.). A digest of the protocol:
as §1

Assay [2] concerns the target T1, human STING (WT). Description: Surface plasmon resonance (SPR), STING (WT). To be noted: biotinylated STING on streptavidin chip, 8° C.

T1 sequence (Q86WV6 other isoform, or with tags, fused parts or gaps, stated change not applied): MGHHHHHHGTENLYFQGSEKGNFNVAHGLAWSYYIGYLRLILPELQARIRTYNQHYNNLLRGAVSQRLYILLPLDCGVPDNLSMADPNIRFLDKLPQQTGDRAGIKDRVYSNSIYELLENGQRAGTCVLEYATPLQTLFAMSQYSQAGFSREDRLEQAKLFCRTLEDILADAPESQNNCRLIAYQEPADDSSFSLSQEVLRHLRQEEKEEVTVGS
Chain of human STING (HAQ) (Q86WV6 whole entry G230A/H232R/R293Q, looked up): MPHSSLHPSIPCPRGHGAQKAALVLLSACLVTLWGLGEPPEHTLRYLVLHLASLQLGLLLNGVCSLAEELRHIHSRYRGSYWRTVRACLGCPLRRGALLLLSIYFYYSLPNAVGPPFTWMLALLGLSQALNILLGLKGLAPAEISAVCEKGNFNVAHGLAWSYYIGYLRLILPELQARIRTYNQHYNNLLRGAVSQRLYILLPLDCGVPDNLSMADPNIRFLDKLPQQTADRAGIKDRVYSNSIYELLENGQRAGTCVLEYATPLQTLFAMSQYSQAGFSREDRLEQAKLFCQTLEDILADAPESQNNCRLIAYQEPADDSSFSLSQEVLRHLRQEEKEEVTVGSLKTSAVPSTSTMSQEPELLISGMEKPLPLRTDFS

In the case of `COc1c(C(N)=O)ccc2c1nc(-c1ccc(Cl)cc1C(=O)O)n2C/C=C/Cn1c(-c2ccc(Cl)cc2C(=O)O)nc2c(OC)c(C(N)=O)ccc21` [Example 34, (E)-6,6′-(But-2-ene-1,4-diylbis(5-carbamoyl-4-methoxy-1H-benzo[d]imidazole-1,2-diyl))bis(3-chlorobenzoic acid)], the ΔTm at 100 µM on human STING (WT) [1] was -2.39 °C; at human STING (HAQ), 0.49 °C. Besides, the pKd on human STING (WT) [2] was 4.13.
For `COc1c(C(N)=O)ccc2c1nc(-c1ncc(Cl)cc1C(=O)O)n2CCn1c(-c2ncc(Cl)cc2C(=O)O)nc2c(OC)c(C(N)=O)ccc21` [Example 31, 2,2′-(Ethane-1,2-diylbis(5-carbamoyl-4-methoxy-1H-benzo[d]imidazole-1,2-diyl))bis(5-chloronicotinic acid)], in that order: 0.18 °C, 3.98 °C and 4.06.
